Data set [1] deals with L929 cell lines. The data set can be described thus: Direct contact of NADES with cell culture, viability by MTS assay. It counts as cell-based. The conditions noted are these: FIG. 3. Here is the method:
In an embodiment, the L929 cell lines were grown in DMEM (Sigma, USA), supplemented with 10% heat-inactivetes fetal bovine serum (FBS, Biochron AG, Germany) and 1% antibiotic-antimicotic (Gibco, USA). The cells were cultured in a humidified atmosphere of 37° C., with 5% CO2.
In an embodiment, the viability of the systems prepared was measured using a method of direct contact with cells (Direct−contact of NADES with cell culture). The cells were seeded onto a 96-well plate for 24 h in the total 1×10^4 cells/well. After 24 h, the medium was removed and extracts with different percentage of NADES, in particular 1%, 5%, 10% and 20% in culture medium were added. The viability of the cells cultured with these extracts was determined by MTS assay, after 24 h and 72 h.
In an embodiment, the MTS cell viability assay was conducted as follows: the influence of the cryopreservants was determined by MTS assay (Cell Titer 96 Aqueous One Solution Cell Proliferation Assay, Promega, USA) after 24 h and 72 h of culture. […] The absorbance was measured at a wavelength of 490 nm using a microplate spectrometer (Synergy HT, Bio-TEK, USA). To the results of absorbance was subtracting the absorbance obtained by blank (culture medium MTS with MTS reagent). […]

The subject of data set [2] is L929 cell line. As to the kind of experiment: Cryopreservation (freezing/thawing) of cells with cryoprotective agent; morphology, live-dead, DAPI-Phalloidin and MTS viability after thawing. Format: cell-based. The settings on record: 10% cryopreservant, FIG. 4. Here is the method:
In an embodiment, the cells were freezed and thawed, in particular the cells were collected by centrifugation (300 rpm for 5 min) and suspended in cool mixture with FBS and cryopreservant (DMSO or Treh-Gly; 5% and 10% cryopresenvant in the FBS). The cells and freezing medium were dispensed into cryotubes (Nunc) (1×10^6 cells/1 mL), and immediately placed into a freezing box (Mr. Frosty) at −20° C. for 2 h. Latter they were placed for 24 h at −80° C. and then the cryotubes were placed in liquid nitrogen. The cells were frozen for 1, 2 and 3 months. As control trehalose and glycerol alone were used in the same concentration. […] In an embodiment, the MTS cell viability assay was conducted as follows: the influence of the cryopreservants was determined by MTS assay (Cell Titer 96 Aqueous One Solution Cell Proliferation Assay, Promega, USA) after 24 h and 72 h of culture. […] The absorbance was measured at a wavelength of 490 nm using a microplate spectrometer (Synergy HT, Bio-TEK, USA). To the results of absorbance was subtracting the absorbance obtained by blank (culture medium MTS with MTS reagent). In an embodiment, the live/dead cell viability assay was used (calcein AM/propidium iodide (PI) staining) (n=5 samples per well) to evaluated cell viability. […] In an embodiment, in vitro biological evaluation of NADES performance as cryopreservant was assessed using the L929 cell line. […]

These results are taken from US20220125042A1, “CRYOPROTECTANT AND/OR CRYOPRESERVANT COMPOSITION, METHODS AND USES THEREOF” (UNIVERSIDADE NOVA DE LISBOA, priority 2017, published 2022).

On to `C[S+](C)[O-]` [DMSO], for which the “cell viability in contact with cells” value was “cell dead” in data set [1] (10% and 20% in the culture media); “very low viability” in data set [1] (low concentrations, 1 or 5% in culture media).

As for `OCC(O)CO` [glycerol], the “morphological analysis and cell viability after cryopreservation” value in data set [2] is given as “somewhat compromised”.

As to `OC[C@H]1O[C@H](O[C@H]2O[C@H](CO)[C@@H](O)[C@H](O)[C@H]2O)[C@H](O)[C@@H](O)[C@@H]1O` [trehalose], the “morphological analysis and cell viability after cryopreservation” value in data set [2] was “somewhat compromised”.
